Test [1] concerns Aβtotal produced and secreted into the medium of human neuroblastoma SKNBE2 cells. Description: Cellular αlisa assay in SKNBE2 cells, Aβtotal. The conditions noted are these: SKNBE2 cells expressing hAPP695, 18 hours incubation; for IC50: Homo sapiens, SKNBE2, 18 h, read-out: Cellular αlisa assay in SKNBE2 cells Aβtotal pIC50 (converted). It counts as cell-based. How it is done: (§1) Cellular αlisa Assay in SKNBE2 Cells In two αlisa assays the levels of Aβtotal and Aβ42 produced and secreted into the medium of human neuroblastoma SKNBE2 cells are quantified. The assay is based on the human neuroblastoma SKNBE2 expressing the wild type Amyloid Precursor Protein (hAPP695). […] Aβtotal and Aβ42 are measured by sandwich α[…] sandwich assay using biotinylated antibody AbN/25 attached to streptavidin coated beads and antibody Ab4G8 or cAb42/26 conjugated acceptor beads for the detection of Aβtotal and Aβ42 respectively. In the presence of Aβtotal or Aβ42, the beads come into close proximity. The excitation of the Donor beads provokes the release of singlet oxygen molecules that triggers a cascade of energy transfer in the Acceptor beads, resulting in light emission. Light emission is measured after 1 hour incubation (excitation at […] and emission at 615 nm). A best-fit curve is fitted by a minimum sum of squares method to the plot of % Controlmin versus compound concentration. […] [formula]

Test [2] relates to Aβ42 produced and secreted into the medium of human neuroblastoma SKNBE2 cells. In words: Cellular αlisa assay in SKNBE2 cells, Aβ42. It counts as cell-based. Particulars: SKNBE2 cells expressing hAPP695, 18 hours incubation; for IC50: Homo sapiens, SKNBE2, 18 h, read-out: Cellular αlisa assay in SKNBE2 cells Aβ42 pIC50 (converted). How it is done: as §1
The target of test [3] is T1, recombinant BACE1 protein (Homo sapiens, UniProt P56817).
T1 construct: recombinant BACE1 protein in a final concentration of 1 μg/ml
Description: Biochemical FRET based assay. The conditions noted are these: recombinant BACE1 1 μg/ml, 120 min, room temperature, pH 5.0; for IC50: read-out: Biochemical FRET based assay pIC50 (converted). The source says:
Biochemical FRET Based Assay This assay is a Fluorescence Resonance Energy Transfer Assay (FRET) based assay. The substrate for this assay is an APP derived 13 amino acids peptide that contains the 'Swedish' […] mutation of the amyloid precursor protein (APP) β-secretase cleavage site. […] Upon cleavage by BACE1, the fluorophore Mca is separated from the quenching group Dnp, restoring the full fluorescence yield of the donor. The increase in fluorescence is linearly related to the rate of proteolysis (Koike H et al. J Biochem. 1999, 126, 235-42). Briefly in a 384-well format recombinant BACE1 protein in a final concentration of 1 μg/ml is incubated for 120 minutes at room temperature with 10 μm substrate in incubation buffer (40 mM Citrate buffer pH 5.0, 0.04% PEG, 4% DMSO) in the absence or presence of compound. Next the amount of proteolysis is directly measured by fluorescence measurement at T=0 and T=120 (excitation at 320 nm and emission at 405 nm). […] [formula]

Each structure is given as a SMILES string.

T1 sequence (P56817 46-501): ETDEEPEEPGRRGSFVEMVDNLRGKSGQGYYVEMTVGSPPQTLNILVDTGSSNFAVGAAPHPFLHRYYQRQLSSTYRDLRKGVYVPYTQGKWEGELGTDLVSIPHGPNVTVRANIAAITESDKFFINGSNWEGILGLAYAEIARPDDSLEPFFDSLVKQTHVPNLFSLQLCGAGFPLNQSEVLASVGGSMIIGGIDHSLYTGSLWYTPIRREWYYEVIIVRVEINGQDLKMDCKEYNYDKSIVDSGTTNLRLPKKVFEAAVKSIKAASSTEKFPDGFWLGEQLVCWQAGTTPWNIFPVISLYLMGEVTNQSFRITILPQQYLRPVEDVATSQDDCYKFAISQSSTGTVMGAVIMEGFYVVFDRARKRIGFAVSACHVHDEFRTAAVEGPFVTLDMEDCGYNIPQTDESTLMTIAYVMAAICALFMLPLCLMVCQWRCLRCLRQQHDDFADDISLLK

For the compound `CC1(c2cc(NC(=O)c3ncc(Cl)cc3Cl)ccc2F)N=C(N)Cn2nc(C(F)(F)F)cc21` (single isomer, unassigned) [Compound 28, (R*)—N-{3-[6-amino-4-methyl-2-(trifluoromethyl)-4,7-dihydropyrazolo[1,5-a]pyrazin-4-yl]-4-fluorophenyl}-3,5-dichloropyridine-2-carboxamide], the “Cellular αlisa assay in SKNBE2 cells Aβtotal pIC50” value in test [1] worked out at 7.1. In addition, the “Cellular αlisa assay in SKNBE2 cells Aβ42 pIC50” value in test [2] came out at 6.99. In addition, the IC50 in test [3] is 0.0912 µM.

With `COc1cncc(-c2cccc(C3(C)N=C(N)Cn4nc(C(F)(F)F)cc43)c2)c1` (single isomer, unassigned) [Compound 23, (S*)-4-[3-(5-methoxypyridin-3-yl)-phenyl]-4-methyl-2-(trifluoromethyl)-4,7-dihydropyrazolo[1,5-a]pyrazin-6-amine], in test [1], the “Cellular αlisa assay in SKNBE2 cells Aβtotal pIC50” value is given as below 5. Further, the “Cellular αlisa assay in SKNBE2 cells Aβ42 pIC50” value in test [2] is reported as below 5. Also, in test [3], the IC50 was above 30.2 µM.

As to `CC1(c2cccc(NC(=O)c3ccc(Cl)cn3)c2)N=C(N)Cn2nccc21` (racemic) [Compound 3, rac-N-[3-(6-amino-4-methyl-4,7-dihydropyrazolo[1,5-a]pyrazin-4-yl)-phenyl]-5-chloropyridine-2-carboxamide], the IC50 in test [1] was 0.0117 µM; in test [2] it was 0.0107 µM.

For the compound `COc1cnc(C(=O)Nc2ccc(F)c(C3(C)N=C(N)Cn4nc(C(F)(F)F)cc43)c2)cn1` (single isomer, unassigned) [Compound 32], the “Cellular αlisa assay in SKNBE2 cells Aβtotal pIC50” value in test [1] is given as 6.54. The “Cellular αlisa assay in SKNBE2 cells Aβ42 pIC50” value in test [2] was determined as 6.56. For the same compound, in test [3], the “Biochemical FRET based assay pIC50” value was below 4.52.

Consider `CC1(c2cc(-c3cncc(Cl)c3)ccc2F)N=C(N)Cn2nc(C(F)(F)F)cc21` (single isomer, unassigned) [Compound 26, (S*)-4-[5-(5-chloropyridin-3-yl)-2-fluorophenyl]-4-methyl-2-(trifluoromethyl)-4,7-dihydropyrazolo[1,5-a]pyrazin-6-amine], for which the “Cellular αlisa assay in SKNBE2 cells Aβtotal pIC50” value in test [1] was below 5. Further, in test [2], the “Cellular αlisa assay in SKNBE2 cells Aβ42 pIC50” value is reported as below 5. In addition, the IC50 in test [3] was above 30.2 µM.

As to `CC1(c2cc(NC(=O)c3ncc(Cl)cc3Cl)ccc2F)N=C(N)Cn2nc(C(F)(F)F)cc21` (single isomer, unassigned) [Compound 29, (S*)—N-{3-[6-amino-4-methyl-2-(trifluoromethyl)-4,7-dihydropyrazolo[1,5-a]pyrazin-4-yl]-4-fluorophenyl}-3,5-dichloropyridine-2-carboxamide], the “Cellular αlisa assay in SKNBE2 cells Aβtotal pIC50” value in test [1] is recorded as below 5. The “Cellular αlisa assay in SKNBE2 cells Aβ42 pIC50” value in test [2] is given as below 5. For the same compound, in test [3], the IC50 was 15.5 µM.

As for `CC1(c2cc(-c3cncnc3)ccc2F)N=C(N)Cn2nccc21` (racemic) [Compound 16], the “Cellular αlisa assay in SKNBE2 cells Aβtotal pIC50” value in test [1] turned out to be 5.48. Moreover, the “Cellular αlisa assay in SKNBE2 cells Aβ42 pIC50” value in test [2] is listed as 5.53. The “Biochemical FRET based assay pIC50” value in test [3] came to 4.98.

In the case of `COc1cncc(-c2cc(C3(C)N=C(N)Cn4nccc43)c(F)cc2F)c1` (racemic) [Compound 5], in test [1], the “Cellular αlisa assay in SKNBE2 cells Aβtotal pIC50” value was 6.41. In addition, the “Cellular αlisa assay in SKNBE2 cells Aβ42 pIC50” value in test [2] is on record as 6.4. In addition, the “Biochemical FRET based assay pIC50” value in test [3] amounted to 5.49.

For the compound `COc1cncc(-c2cccc(C3(C)N=C(N)Cn4nccc43)c2)c1` (stereo not shown) [Compound 9], the “Cellular αlisa assay in SKNBE2 cells Aβtotal pIC50” value in test [1] was 6.94. Also, the “Cellular αlisa assay in SKNBE2 cells Aβ42 pIC50” value in test [2] is recorded as 6.93. Also, in test [3], the “Biochemical FRET based assay pIC50” value is reported as 6.05.

Regarding `CC1(c2cccc(-c3cc(F)cc(F)c3)c2)N=C(N)Cn2nccc21` (stereo not shown) [Compound 14], the “Cellular αlisa assay in SKNBE2 cells Aβtotal pIC50” value in test [1] is 6.11. Further, the “Cellular αlisa assay in SKNBE2 cells Aβ42 pIC50” value in test [2] is reported as 6.09. For the same compound, in test [3], the “Biochemical FRET based assay pIC50” value stood at 6.11.

As for `CC1(c2cc(-c3cc(Cl)cc(Cl)c3)ccc2F)N=C(N)Cn2nccc21` (racemic) [Compound 15], the “Cellular αlisa assay in SKNBE2 cells Aβtotal pIC50” value in test [1] amounted to 5.52. The “Cellular αlisa assay in SKNBE2 cells Aβ42 pIC50” value in test [2] is recorded as 5.48. Also, the “Biochemical FRET based assay pIC50” value in test [3] was found to be 5.68.

For the compound `CC1(c2cc(NC(=O)c3ncc(Cl)cc3Cl)ccc2F)N=C(N)Cn2nc(C(F)(F)F)cc21` (stereo not drawn) [Compound 27, rac-N-{3-[6-amino-4-methyl-2-(trifluoromethyl)-4,7-dihydropyrazolo[1,5-a]pyrazin-4-yl]-4-fluorophenyl}-3,5-dichloropyridine-2-carboxamide], the figures for the IC50 in test [1], in test [2] and in test [3] were 0.17 µM, 0.17 µM and 0.145 µM, respectively.

For the compound `COc1cnc(C(=O)Nc2ccc(F)c(C3(C)N=C(N)Cn4nc(C(F)(F)F)cc43)c2)cn1` (single isomer, unassigned) [Compound 31], the “Cellular αlisa assay in SKNBE2 cells Aβtotal pIC50” value in test [1] is given as 6.99. Moreover, in test [2], the “Cellular αlisa assay in SKNBE2 cells Aβ42 pIC50” value worked out at 6.92. Also, the “Biochemical FRET based assay pIC50” value in test [3] was 6.73.

For the compound `COc1cncc(-c2cccc(C3(C)N=C(N)Cn4nc(C(F)(F)F)cc43)c2)c1` (single isomer, unassigned) [Compound 22, (R*)-4-[3-(5-methoxypyridin-3-yl)-phenyl]-4-methyl-2-(trifluoromethyl)-4,7-dihydropyrazolo[1,5-a]pyrazin-6-amine], in test [1], the “Cellular αlisa assay in SKNBE2 cells Aβtotal pIC50” value stood at 6.18. In addition, the “Cellular αlisa assay in SKNBE2 cells Aβ42 pIC50” value in test [2] is given as 6.13. In addition, the IC50 in test [3] was 0.603 µM.

With `CC1(c2cccc(NC(=O)c3ccc(Cl)cn3)c2)N=C(N)Cn2nccc21` (stereo not shown) [Compound 17], the “Cellular αlisa assay in SKNBE2 cells Aβtotal pIC50” value in test [1] is on record as 8.08. The “Cellular αlisa assay in SKNBE2 cells Aβ42 pIC50” value in test [2] is 8.09.

Consider `COc1cccc(-c2cc(C3(C)N=C(N)Cn4nccc43)c(F)cc2F)c1` (racemic) [Compound 6], for which the “Cellular αlisa assay in SKNBE2 cells Aβtotal pIC50” value in test [1] turned out to be 6.13. Also, the “Cellular αlisa assay in SKNBE2 cells Aβ42 pIC50” value in test [2] turned out to be 6.06. The “Biochemical FRET based assay pIC50” value in test [3] is listed as 5.53.

For the compound `CC1(c2cccc(-c3cccc(OC(F)(F)F)c3)c2)N=C(N)Cn2nccc21` (stereo not shown) [Compound 19], in test [1], the “Cellular αlisa assay in SKNBE2 cells Aβtotal pIC50” value is reported as 5.91. In addition, the “Cellular αlisa assay in SKNBE2 cells Aβ42 pIC50” value in test [2] came to 5.81. Besides, the “Biochemical FRET based assay pIC50” value in test [3] is recorded as 5.77.

As for `COc1cnc(C(=O)Nc2ccc(F)c(C3(C4CC4)N=C(N)Cn4nccc43)c2)cn1` (stereo not shown) [Compound 34], the “Cellular αlisa assay in SKNBE2 cells Aβtotal pIC50” value in test [1] came to 7.19. The “Cellular αlisa assay in SKNBE2 cells Aβ42 pIC50” value in test [2] is on record as 7.11. Also, the “Biochemical FRET based assay pIC50” value in test [3] came to 6.51.

For `COc1cnc(C(=O)Nc2ccc(F)c(C3(C)N=C(N)Cn4nc(C(F)(F)F)cc43)c2)cn1` (racemic) [Compound 30], the “Cellular αlisa assay in SKNBE2 cells Aβtotal pIC50” value in test [1] was 6.78. Further, the “Cellular αlisa assay in SKNBE2 cells Aβ42 pIC50” value in test [2] was determined as 6.8. In test [3], the “Biochemical FRET based assay pIC50” value is reported as 6.68.

As to `CC1(c2cc(-c3cccc(C#N)c3)c(F)cc2F)N=C(N)Cn2nccc21` (racemic) [Compound 18], the “Cellular αlisa assay in SKNBE2 cells Aβtotal pIC50” value in test [1] was 5.67. For the same compound, the “Cellular αlisa assay in SKNBE2 cells Aβ42 pIC50” value in test [2] is reported as 5.76. Further, the “Biochemical FRET based assay pIC50” value in test [3] came to 4.75.

For the compound `CC1(c2cc(-c3ccccc3)c(F)cc2F)N=C(N)Cn2nccc21` (racemic) [Compound 12], in test [1], the “Cellular αlisa assay in SKNBE2 cells Aβtotal pIC50” value is given as 5.67. Besides, in test [2], the “Cellular αlisa assay in SKNBE2 cells Aβ42 pIC50” value worked out at 5.58. In addition, the “Biochemical FRET based assay pIC50” value in test [3] was determined as 4.88.

As to `CC1(c2cc(NC(=O)c3ccc(Cl)cn3)ccc2F)N=C(N)Cn2nccc21` (racemic) [Compound 13], the “Cellular αlisa assay in SKNBE2 cells Aβtotal pIC50” value in test [1] turned out to be 7.73. For the same compound, the “Cellular αlisa assay in SKNBE2 cells Aβ42 pIC50” value in test [2] was found to be 7.72. In addition, in test [3], the “Biochemical FRET based assay pIC50” value was found to be 6.84.

As to `CC1(c2cccc(-c3cncnc3)c2)N=C(N)Cn2nccc21` (racemic) [Compound 1, rac-4-methyl-4-(3-pyrimidin-5-ylphenyl)-4,7-dihydropyrazolo[1,5-a]pyrazin-6-amine], the IC50 was 0.355 µM in test [1], 0.457 µM in test [2] and 3.31 µM in test [3].

For the compound `COc1cncc(-c2cccc(C3(C)N=C(N)Cn4nc(C(F)(F)F)cc43)c2)c1` (stereo not drawn) [Compound 21, rac-4-[3-(5-methoxypyridin-3-yl)-phenyl]-4-methyl-2-(trifluoromethyl)-4,7-dihydropyrazolo[1,5-a]pyrazin-6-amine], the results for the IC50 in test [1], in test [2] and in test [3] were 0.398 µM, 0.407 µM and 1.07 µM, respectively.

These data come from patent US8609660B2, “4,7-dihydro-pyrazolo[1,5-a]pyrazin-6-ylamine derivatives useful as inhibitors of beta-secretase (BACE)” (Janssen Pharmaceutica NV, priority 2010, dated 2013).
